target: Human RSK2 (Homo sapiens (Human), UniProt P51812); test: Human RSK2 Assay (Kinase Glo Plus, residual ATP); type: biochemical; conditions: 0.75 nM His-RSK2, 0.75 μM ATP, 1.0 μM S6 Kinase/RSK Substrate Peptide 1
How it was run: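 His-RSK2 (0.75 nM) with 0.75 μM ATP and 1.0 μM S6 kinase/RSK substrate peptide in HEPES pH 7.5 buffer with Mg/Mn, 90 min at 28° C. Residual ATP read by Kinase Glo Plus luminescence; percent of control fitted to a 4-parameter logistic, IC50 taken as inflection point.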

Sequence of Human RSK2 (P51812 whole entry): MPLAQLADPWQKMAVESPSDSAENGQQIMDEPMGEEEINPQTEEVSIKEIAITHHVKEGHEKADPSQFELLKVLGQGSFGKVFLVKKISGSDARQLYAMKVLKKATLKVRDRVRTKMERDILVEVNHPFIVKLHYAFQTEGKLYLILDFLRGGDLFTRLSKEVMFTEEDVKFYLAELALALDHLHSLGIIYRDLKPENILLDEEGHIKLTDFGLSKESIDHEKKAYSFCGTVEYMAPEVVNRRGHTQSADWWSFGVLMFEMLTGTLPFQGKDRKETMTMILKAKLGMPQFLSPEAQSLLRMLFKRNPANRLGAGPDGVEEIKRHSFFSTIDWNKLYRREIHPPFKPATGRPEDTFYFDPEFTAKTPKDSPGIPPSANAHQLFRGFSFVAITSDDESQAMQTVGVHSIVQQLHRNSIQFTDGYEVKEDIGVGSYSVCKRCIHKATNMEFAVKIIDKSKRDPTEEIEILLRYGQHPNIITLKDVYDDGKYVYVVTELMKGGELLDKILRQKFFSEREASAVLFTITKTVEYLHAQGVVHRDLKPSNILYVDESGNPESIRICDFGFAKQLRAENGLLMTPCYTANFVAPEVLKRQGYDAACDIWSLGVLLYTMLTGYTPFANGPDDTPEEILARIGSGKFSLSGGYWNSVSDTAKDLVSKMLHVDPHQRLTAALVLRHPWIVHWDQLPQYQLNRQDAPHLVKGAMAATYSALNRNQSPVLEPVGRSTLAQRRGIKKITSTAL

IC50 [nM]	Structure (SMILES)
26.5	CCn1c(NC(=O)c2ccc3cc4n(c3n2)[C@H](C)CNC4=O)nc2ccccc21 [Example 72, (9R)-N-(1-ethyl-1H-benzimidazol-2-yl)-9-methyl-6-oxo-6,7,8,9-tetrahydropyrido[3′,2′:4,5]pyrrolo[1,2-a]pyrazine-2-carboxamide]
265	C[C@H]1CNC(=O)c2cc3ccc(C(=O)Nc4nc5ccccc5n4CCCN(C)C)nc3n21 [Example 75, (9S)-N-{1-[3-(dimethylamino)propyl]-1H-benzimidazol-2-yl}-9-methyl-6-oxo-6,7,8,9-tetrahydropyrido[3′,2′:4,5]pyrrolo[1,2-a]pyrazine-2-carboxamide]
54	C[C@@H]1CNC(=O)c2cc3ccc(C(=O)Nc4nc5ccccc5n4CCCN(C)C)nc3n21 [Example 76, (9R)-N-{1-[3-(dimethylamino)propyl]-1H-benzimidazol-2-yl}-9-methyl-6-oxo-6,7,8,9-tetrahydropyrido[3′,2′:4,5]pyrrolo[1,2-a]pyrazine-2-carboxamide]
19	CC(C)(C)c1cc(NC(=O)c2ccc3cc4n(c3n2)CCCNC4=O)no1 [Example 79, N-(5-tert-butyl-1,2-oxazol-3-yl)-6-oxo-7,8,9,10-tetrahydro-6H-pyrido[3′,2′:4,5]pyrrolo[1,2-a][1,4]diazepine-2-carboxamide]
19	Cc1cc(NC(=O)c2ccc3cc4n(c3n2)CCCNC4=O)no1 [Example 80, N-(5-methyl-1,2-oxazol-3-yl)-6-oxo-7,8,9,10-tetrahydro-6H-pyrido[3′,2′:4,5]pyrrolo[1,2-a][1,4]diazepine-2-carboxamide]
4.3	O=C(Nc1cc(-c2ccccc2)no1)c1ccc2cc3n(c2n1)CCCNC3=O [Example 81, 6-oxo-N-(3-phenyl-1,2-oxazol-5-yl)-7,8,9,10-tetrahydro-6H-pyrido[3′,2′:4,5]pyrrolo[1,2-a][1,4]diazepine-2-carboxamide]
5.2	Cc1cc(NC(=O)c2ccc3cc4n(c3n2)C(C)CCNC4=O)no1 (centres unmarked) [Example 82, 10-methyl-N-(5-methyl-1,2-oxazol-3-yl)-6-oxo-7,8,9,10-tetrahydro-6H-pyrido[3′,2′:4,5]pyrrolo[1,2-a][1,4]diazepine-2-carboxamide]
380	Cc1cc(NC(=O)c2ccc3cc4n(c3n2)[C@@H](C)CNC4=O)no1 [Example 83, (9S)-9-methyl-N-(5-methyl-1,2-oxazol-3-yl)-6-oxo-6,7,8,9-tetrahydropyrido[3′,2′:4,5]pyrrolo[1,2-a]pyrazine-2-carboxamide]
6.6	Cc1cc(NC(=O)c2ccc3cc4n(c3n2)[C@H](C)CNC4=O)no1 [Example 84, (9R)-9-methyl-N-(5-methyl-1,2-oxazol-3-yl)-6-oxo-6,7,8,9-tetrahydropyrido[3′,2′:4,5]pyrrolo[1,2-a]pyrazine-2-carboxamide]
109	CCc1cc(NC(=O)c2ccc3cc4n(c3n2)CC(C)(C)CNC4=O)no1 [Example 88, N-(5-ethyl-1,2-oxazol-3-yl)-9,9-dimethyl-6-oxo-7,8,9,10-tetrahydro-6H-pyrido[3′,2′:4,5]pyrrolo[1,2-a][1,4]diazepine-2-carboxamide]
125	CC(C)c1cc(NC(=O)c2ccc3cc4n(c3n2)CC(C)(C)CNC4=O)no1 [Example 89, 9,9-dimethyl-6-oxo-N-[5-(propan-2-yl)-1,2-oxazol-3-yl]-7,8,9,10-tetrahydro-6H-pyrido[3′,2′:4,5]pyrrolo[1,2-a][1,4]diazepine-2-carboxamide]
43	CC1(C)CNC(=O)c2cc3ccc(C(=O)Nc4cc(C5CC5)on4)nc3n2C1 [Example 90, N-(5-cyclopropyl-1,2-oxazol-3-yl)-9,9-dimethyl-6-oxo-7,8,9,10-tetrahydro-6H-pyrido[3′,2′:4,5]pyrrolo[1,2-a][1,4]diazepine-2-carboxamide]
395	Cc1cc(NC(=O)c2ccc3cc4n(c3n2)CC(C)(C)CNC4=O)no1 [Example 91, 9,9-dimethyl-N-(5-methyl-1,2-oxazol-3-yl)-6-oxo-7,8,9,10-tetrahydro-6H-pyrido[3′,2′:4,5]pyrrolo[1,2-a][1,4]diazepine-2-carboxamide]
502	CC1(C)CNC(=O)c2cc3ccc(C(=O)Nc4cc(-c5ccccc5)on4)nc3n2C1 [Example 92, 9,9-dimethyl-6-oxo-N-(5-phenyl-1,2-oxazol-3-yl)-7,8,9,10-tetrahydro-6H-pyrido[3′,2′:4,5]pyrrolo[1,2-a][1,4]diazepine-2-carboxamide]
360	CC1(C)CNC(=O)c2cc3ccc(C(=O)Nc4cc(Cc5ccccc5)on4)nc3n2C1 [Example 93, N-(5-benzyl-1,2-oxazol-3-yl)-9,9-dimethyl-6-oxo-7,8,9,10-tetrahydro-6H-pyrido[3′,2′:4,5]pyrrolo[1,2-a][1,4]diazepine-2-carboxamide]
3.3	CC1CCNC(=O)c2cc3ccc(C(=O)Nc4cc(Cc5ccccc5)on4)nc3n21 (centres unmarked) [Example 94, N-(5-benzyl-1,2-oxazol-3-yl)-10-methyl-6-oxo-7,8,9,10-tetrahydro-6H-pyrido[3′,2′:4,5]pyrrolo[1,2-a][1,4]diazepine-2-carboxamide]
3.6	O=C(Nc1cc(Cc2ccccc2)no1)c1ccc2cc3n(c2n1)CCCNC3=O [Example 95, N-(3-benzyl-1,2-oxazol-5-yl)-6-oxo-7,8,9,10-tetrahydro-6H-pyrido[3′,2′:4,5]pyrrolo[1,2-a][1,4]diazepine-2-carboxamide]
13	CC1CCNC(=O)c2cc3ccc(C(=O)Nc4cc(Cc5ccccc5)no4)nc3n21 (centres unmarked) [Example 96, N-(3-benzyl-1,2-oxazol-5-yl)-10-methyl-6-oxo-7,8,9,10-tetrahydro-6H-pyrido[3′,2′:4,5]pyrrolo[1,2-a][1,4]diazepine-2-carboxamide]
490	C[C@H]1CNC(=O)c2cc3ccc(C(=O)Nc4cc(Cc5ccccc5)on4)nc3n21 [Example 97, (9S)-N-(5-benzyl-1,2-oxazol-3-yl)-9-methyl-6-oxo-6,7,8,9-tetrahydropyrido[3′,2′:4,5]pyrrolo[1,2-a]pyrazine-2-carboxamide]
3.9	C[C@@H]1CNC(=O)c2cc3ccc(C(=O)Nc4cc(Cc5ccccc5)on4)nc3n21 [Example 98, (9R)-N-(5-benzyl-1,2-oxazol-3-yl)-9-methyl-6-oxo-6,7,8,9-tetrahydropyrido[3′,2′:4,5]pyrrolo[1,2-a]pyrazine-2-carboxamide]
120	CC1CNC(=O)c2cc3ccc(C(=O)Nc4cccnc4)nc3n21 (centres unmarked) [Example 101, 9-methyl-6-oxo-N-(pyridin-3-yl)-6,7,8,9-tetrahydropyrido[3′,2′:4,5]pyrrolo[1,2-a]pyrazine-2-carboxamide]
130	CNC(=O)c1csc(NC(=O)c2ccc3cc4n(c3n2)C(C)CNC4=O)n1 (centres unmarked) [Example 102, 9-methyl-N-[4-(methylcarbamoyl)-1,3-thiazol-2-yl]-6-oxo-6,7,8,9-tetrahydropyrido[3′,2′:4,5]pyrrolo[1,2-a]pyrazine-2-carboxamide]
330	CC1CNC(=O)c2cc3ccc(C(=O)Nc4nccs4)nc3n21 (centres unmarked) [Example 103, 9-methyl-6-oxo-N-(1,3-thiazol-2-yl)-6,7,8,9-tetrahydropyrido[3′,2′:4,5]pyrrolo[1,2-a]pyrazine-2-carboxamide]
1.6	Cn1cc(NC(=O)c2ccc3cc4n(c3n2)CCCNC4=O)nc1C(=O)NC1CCCC1 [Example 104, N-[2-(cyclopentylcarbamoyl)-1-methyl-1H-imidazol-4-yl]-6-oxo-7,8,9,10-tetrahydro-6H-pyrido[3′,2′:4,5]pyrrolo[1,2-a][1,4]diazepine-2-carboxamide]

system: NHE1; test: not given; conditions: Cuello et al., Mol Pharmacol 71:799-806, 2007; cited from earlier work

Structure (SMILES)	basal NHE1 activity	phosphorylation of NHE1 and phenylephrine-induced enhanced NHE1 activity
Cc1ccc(-c2c(C(=O)CF)n(CCCO)c3ncnc(N)c23)cc1 [fmk]	without affecting basal activity	inhibit phosphorylation of NHE1

Reference: US9073926B2, “Heterocyclic compounds containing a pyrrolopyridine or benzimidazole core” (Boehringer Ingelheim International GmbH, priority 2009, dated 2015)
